Assay results as given in PubChem BioAssay AID248 (DTP/NCI, 2004).
Inconclusive results and toxic doses are left out. Cut-off read from the data, not from the text of the source: active = T/C of 150% or more; inactive = T/C below 125%.

Tested on: L1210 leukemia ip in BDF1 mice, survival T/C
Assay: NCI In Vivo Anticancer Drug Screen. Data for tumor model L1210 Leukemia (intraperitoneal) in B6D2F1 (BDF1) mice
Conditions: endpoint: mean survival time, higher = longer survival
In short: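 Tumor cells were implanted, animals were treated, and survival was followed. The result divides the treated measurement by the vehicle-control measurement.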

[1] = dose: 100.0 mg/kg/injection, schedule: Q04DX002 (ip), vehicle: Klucel (hydroxypropylcellulose) (HPC)
[2] = dose: 100.0 mg/kg/injection, schedule: Q04DX003 (ip), vehicle: Klucel (hydroxypropylcellulose) (HPC)
[3] = dose: 100.0 mg/kg/injection, schedule: Q01DX009 (ip), vehicle: saline with Tween-80
[4] = dose: 200.0 mg/kg/injection, schedule: Q01DX009 (ip), vehicle: saline with Tween-80
[5] = dose: 400.0 mg/kg/injection, schedule: Q01DX009 (ip), vehicle: saline with Tween-80
[6] = dose: 100.0 mg/kg/injection, schedule: Q04DX003 (ip), vehicle: saline with Tween-80
[7] = dose: 200.0 mg/kg/injection, schedule: Q04DX003 (ip), vehicle: saline with Tween-80
[8] = dose: 400.0 mg/kg/injection, schedule: Q04DX003 (ip), vehicle: saline with Tween-80
[9] = dose: 100.0 mg/kg/injection, schedule: Q01DX001 (ip), vehicle: carboxymethylcellulose (CMC)
[10] = dose: 200.0 mg/kg/injection, schedule: Q01DX001 (ip), vehicle: carboxymethylcellulose (CMC)
[11] = dose: 400.0 mg/kg/injection, schedule: Q01DX001 (ip), vehicle: carboxymethylcellulose (CMC)
[12] = dose: 100.0 mg/kg/injection, schedule: Q01DX001 (ip), vehicle: saline
[13] = dose: 200.0 mg/kg/injection, schedule: Q01DX001 (ip), vehicle: saline
[14] = dose: 400.0 mg/kg/injection, schedule: Q01DX001 (ip), vehicle: saline
[15] = dose: 200.0 mg/kg/injection, schedule: Q04DX003 (ip), vehicle: Klucel (hydroxypropylcellulose) (HPC)
[16] = dose: 400.0 mg/kg/injection, schedule: Q04DX003 (ip), vehicle: Klucel (hydroxypropylcellulose) (HPC)

Measured: T/C

OC(COc1cccc2ccccc12)CN1CCCCC1 (stereo not given)
inactive: dose: 25.0 mg/kg/injection, schedule: Q04DX002 (ip), vehicle: Klucel (hydroxypropylcellulose) (HPC) 106 % of control | dose: 50.0 mg/kg/injection, schedule: Q04DX002 (ip), vehicle: Klucel (hydroxypropylcellulose) (HPC) 98 % of control | [1] 92 % of control

Cn1c(=S)sc2ccccc21
inactive: dose: 25.0 mg/kg/injection, schedule: Q04DX003 (ip), vehicle: saline with Tween-80 97 % of control | dose: 50.0 mg/kg/injection, schedule: Q04DX003 (ip), vehicle: saline with Tween-80 97 % of control | [2] 107 % of control

C=C1C(=O)OC2C1C(OC(=O)/C(=C/C)COC(C)=O)CC1(CO1)C1C(OC(=O)/C(=C/C)CO)C3OC3(C)C21 (stereo not given)
inactive: dose: 3.12 mg/kg/injection, schedule: Q01DX009 (ip), vehicle: alcohol 110 % of control | dose: 6.25 mg/kg/injection, schedule: Q01DX009 (ip), vehicle: alcohol 104 % of control | dose: 12.5 mg/kg/injection, schedule: Q01DX009 (ip), vehicle: alcohol 96 % of control

O/N=C1\CC(c2ccccc2)(c2ccccc2)c2cc(-c3ccccc3)c(-c3ccccc3)cc21
inactive: dose: 50.0 mg/kg/injection, schedule: Q01DX009 (ip), vehicle: saline with Tween-80 97 % of control | [3] 104 % of control | [4] 97 % of control

O=C(O)CCCCCCCCC(=O)c1ccccc1
inactive: [3] 95 % of control | [4] 91 % of control | [5] 95 % of control

CCCCCCCCc1cc[n+](C2=C([O-])c3ccccc3C(=O)C2=O)cc1
inactive: dose: 1.5 mg/kg/injection, schedule: Q01DX009 (ip), vehicle: saline 106 % of control | dose: 3.0 mg/kg/injection, schedule: Q01DX009 (ip), vehicle: saline 95 % of control | dose: 6.0 mg/kg/injection, schedule: Q01DX009 (ip), vehicle: saline 106 % of control

O=[N+]([O-])/C=C/c1ccc(O)cc1
inactive: dose: 50.0 mg/kg/injection, schedule: Q01DX015 (ip), vehicle: saline 97 % of control | dose: 50.0 mg/kg/injection, schedule: Q04DX003 (ip), vehicle: acetone 96 % of control

C[Si](C)(C)c1cccc(-c2ccccc2)c1
inactive: dose: 25.6 mg/kg/injection, schedule: Q04DX002 (ip), vehicle: saline with Tween-80 93 % of control | dose: 64.0 mg/kg/injection, schedule: Q04DX002 (ip), vehicle: saline with Tween-80 104 % of control | [6] 101 % of control | dose: 160.0 mg/kg/injection, schedule: Q04DX002 (ip), vehicle: saline with Tween-80 97 % of control | [7] 92 % of control | dose: 400.0 mg/kg/injection, schedule: Q04DX002 (ip), vehicle: saline with Tween-80 97 % of control | [8] 101 % of control

COc1ccccc1CN1CCCN(Cc2ccccc2OC)C1c1cccnc1
inactive: dose: 50.0 mg/kg/injection, schedule: Q01DX001 (ip), vehicle: carboxymethylcellulose (CMC) 112 % of control | [9] 108 % of control | [10] 106 % of control | [11] 108 % of control

C=CCOc1ccnc(N)n1
inactive: [3] 90 % of control | [6] 105 % of control | [4] 95 % of control | [7] 100 % of control | [5] 100 % of control | [8] 102 % of control

COc1c(C)c(C)c(OC(C)=O)c(C)c1Br
inactive: [6] 96 % of control | [7] 89 % of control | [8] 91 % of control

COc1ccc(NC(=S)Nc2ccc(-c3ccc(NC(=S)Nc4ccc(OC)cc4)cc3)cc2)cc1
inactive: [1] 87 % of control | dose: 200.0 mg/kg/injection, schedule: Q04DX002 (ip), vehicle: Klucel (hydroxypropylcellulose) (HPC) 87 % of control

CC(=O)OCC(=O)[C@@]1(O)CC[C@H]2[C@@H]3C[C@H](F)C4=CC(=O)CC[C@]4(C)[C@H]3C(=O)C[C@@]21C
inactive: dose: 0.78 mg/kg/injection, schedule: Q01DX005 (ip), vehicle: saline 102 % of control | dose: 1.56 mg/kg/injection, schedule: Q01DX005 (ip), vehicle: saline 102 % of control | dose: 3.12 mg/kg/injection, schedule: Q01DX005 (ip), vehicle: saline 104 % of control | dose: 100.0 mg/kg/injection, schedule: Q01DX001 (sc), vehicle: steriod suspending solution 96 % of control | dose: 200.0 mg/kg/injection, schedule: Q01DX001 (sc), vehicle: steriod suspending solution 104 % of control | dose: 400.0 mg/kg/injection, schedule: Q01DX001 (sc), vehicle: steriod suspending solution 102 % of control

Cc1ccc(C(=O)CCc2ccccc2)cc1
inactive: dose: 100.0 mg/kg/injection, schedule: Q04DX003 (ip), vehicle: other 92 % of control | dose: 200.0 mg/kg/injection, schedule: Q04DX003 (ip), vehicle: other 91 % of control | dose: 400.0 mg/kg/injection, schedule: Q04DX003 (ip), vehicle: other 94 % of control

CC(C)(C)CC(C)(C)O
inactive: [12] 102 % of control | [13] 102 % of control | [14] 96 % of control

Cc1c2ccccc2c(C)c2c1ccc1ccccc12
inactive: dose: 6.25 mg/kg/injection, schedule: Q01DX001 (ip), vehicle: acetone 123 % of control | dose: 12.37 mg/kg/injection, schedule: Q04DX003 (ip), vehicle: saline with Tween-80 112 % of control

CCCCCCCCCC(=O)CCCC
inactive: [3] 122 % of control | dose: 100.0 mg/kg/injection, schedule: Q04DX003 (ip), vehicle: saline 94 % of control | [4] 96 % of control | dose: 200.0 mg/kg/injection, schedule: Q04DX003 (ip), vehicle: saline 98 % of control | [5] 104 % of control | dose: 400.0 mg/kg/injection, schedule: Q04DX003 (ip), vehicle: saline 94 % of control

O=[N+]([O-])c1ccc(OCCBr)c(Cl)c1
inactive: [2] 92 % of control | [15] 97 % of control | [16] 96 % of control

N#CC1=C(C#N)C(=O)C(c2ccccc2)=C(c2ccccc2)C1=O
inactive: dose: 5.0 mg/kg/injection, schedule: Q01DX001 (ip), vehicle: saline 97 % of control | dose: 10.0 mg/kg/injection, schedule: Q01DX001 (ip), vehicle: saline 97 % of control | dose: 20.0 mg/kg/injection, schedule: Q01DX001 (ip), vehicle: saline 101 % of control

CCOC(=O)C(C(C)=O)C(c1ccc(O)cc1)C(C(C)=O)C(=O)OCC (stereo not given)
inactive: [12] 93 % of control | [13] 86 % of control | [14] 87 % of control

CSc1ncnc2c1ncn2NC(=O)C1CCC(=O)N1 (stereo not given)
inactive: dose: 100.0 mg/kg/injection, schedule: Q01DX009 (ip), vehicle: saline 104 % of control | [2] 107 % of control | dose: 200.0 mg/kg/injection, schedule: Q01DX009 (ip), vehicle: saline 104 % of control | [15] 100 % of control | dose: 400.0 mg/kg/injection, schedule: Q01DX009 (ip), vehicle: saline 106 % of control | [16] 109 % of control

Cc1cc(C)c(C[N+](C)(C)C)c(C)c1
inactive: dose: 50.0 mg/kg/injection, schedule: Q01DX001 (ip), vehicle: saline 108 % of control | [12] 104 % of control

Nc1ccc(-n2cnc3c(=O)[nH]c(N)nc32)cc1
inactive: [6] 98 % of control | [7] 98 % of control | [8] 92 % of control

CCOC(=O)/C=C(/C)C#N
inactive: [9] 103 % of control | [10] 97 % of control | [11] 98 % of control
